The values below are quoted from earlier work in US20060045857A1, “Sunless tanning composition and methods for using” (priority 2004, published 2006).

The conditions of the series: in vivo.

For “Poly(vinylpyrrolidone/1-hexadecene) [PVPH]”, the dermal toxicity result is recorded as “no demonstrable dermal toxicity”. On to “poly(vinylpyrrolidone/1-eicosene) [PVPE]”, for which the dermal toxicity result was “no demonstrable dermal toxicity”.
